We go through one molecule from article PMC6934700, “Structure-Guided Design of a Fluorescent Probe for the Visualization of FtsZ in Clinically Important Gram-Positive and Gram-Negative Bacterial Pathogens” (Scientific Reports, 2019).

One experiment deals with T1, E. faecium (EfmFtsZ) (Enterococcus faecium, UniProt Q3Y2I1).
T1 sequence (Q3Y2I1 1-413): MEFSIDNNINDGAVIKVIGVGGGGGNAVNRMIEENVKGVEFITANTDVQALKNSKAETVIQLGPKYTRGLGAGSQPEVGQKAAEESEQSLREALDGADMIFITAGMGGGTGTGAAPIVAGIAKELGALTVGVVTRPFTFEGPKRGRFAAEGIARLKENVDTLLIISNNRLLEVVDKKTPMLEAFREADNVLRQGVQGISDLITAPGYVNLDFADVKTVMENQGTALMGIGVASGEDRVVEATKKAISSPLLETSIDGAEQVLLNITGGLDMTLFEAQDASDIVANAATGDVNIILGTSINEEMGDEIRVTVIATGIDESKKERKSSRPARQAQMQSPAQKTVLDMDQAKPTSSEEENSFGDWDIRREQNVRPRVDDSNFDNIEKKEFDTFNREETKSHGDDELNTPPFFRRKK
Briefly: Fluorescence anisotropy binding of BOFP to EfmFtsZ. Conditions: for Kd: 50 mM Tris-HCl (pH 7.6), 50 mM KCl, 0.1 µM BOFP. How it is done: Fluorescence anisotropy experiments were performed using an AVIV model ATF105 spectrofluorometer at 15, 25, or 37 °C. In these experiments, bandwidths were set to 4 nm in both the excitation and emission directions, with the excitation and emission wavelengths being set at 488 nm and 510 nm, respectively. BOFP (0.1 µM) was titrated with increasing concentrations (ranging from 0 to 12 µM) of FtsZ in 120 µL of buffer containing 50 mM Tris-HCl (pH 7.6) and 50 mM KCl. After each protein addition, the samples were equilibrated for 3 minutes, whereupon the fluorescence anisotropy was measured.
In this equation, r0 is the anisotropy of the protein-free compound, r∞ is the anisotropy of the compound in the presence of an infinite concentration of FtsZ, [C]tot is the total concentration of the compound, and [P]tot is the total concentration of protein with each addition. These analyses yielded the equilibrium dissociation constant (Kd) for each binding reaction.
The binding free energy (ΔG) at temperature T was derived from the corresponding Kd value determined at T using the following relationship:2 ΔG=−RTln(1/Kd)
The binding enthalpy (ΔH) and entropy (ΔS) were derived from linear fits of the ln(1/Kd) vs. 1/T plots shown in Figs. 3f and 5e using the following relationship:3 ln(1/Kd)=−ΔH/R(1/T)+ΔS/R
(In fluorescence polarisation assays a small probe gives low polarisation when free and higher when bound to something large.)

The subject of experiment [1] is FtsZ in E. faecium ATCC 19434 cells. The experiment can be described thus: FtsZ visualization by fluorescence microscopy in live cells. Format: cell-based, Enterococcus faecium. The following applies: 1 µg/mL for 5 minutes. On the procedure: All differential interference contrast (DIC) and fluorescence microscopy experiments were conducted using an Olympus BX50 microscope equipped with an X-cite Exacte 200 W mercury lamp, a 100× Olympus UPLSAPO oil immersion objective (1.40 aperture), as well as both Chroma ET-EGFP (FITC/Cy2) and ET mCherry, Texas Red filters. Images were captured using a QImaging Retiga R3 charge-coupled device (CCD) camera and the Ocular-Version 2.0 software package (QImaging).
For visualizing FtsZ in Gram-positive bacteria using BOFP, the bacterial cells were grown to log-phase in media suitable for each individual pathogen. Specifically, S. aureus NRS705 (MRSA) was grown in tryptic soy broth (TSB), E. faecalis ATCC 29212 and E. faecium ATCC 19434 were grown in lactobacilli MRS broth, S. agalactiae ATCC 12386 and S. pneumoniae ATCC 49619 were grown in TH broth, and S. pyogenes ATCC 19615 was grown in CAMH broth supplemented with 3% (v/v) LHB. For each Gram-positive bacterial strain, a total of 1 mL of cell culture was centrifuged at 15,000 × g for 1 minute and washed 2–3 times with 1 mL of PBS. After the final wash, the pelleted cells were resuspended in 500 µL of PBS containing 1 µg/mL of BOFP and incubated in the dark for 5 minutes at room temperature. The cells were then centrifuged at 15,000 × g for 1 minute, washed twice with 1 mL of PBS, and subsequently resuspended in 200 µL of PBS. […]

Where two headings read alike, the source gives them in different places.

One may read the Kd as the concentration at which binding is half-saturated. Regarding `CC1=CC(C)=[N+]2C1=Cc1ccc(CCC(=O)OCC(Oc3ccc(F)c(C(N)=O)c3F)c3nc(-c4ccc(C(F)(F)F)cc4)c(Br)o3)n1[B-]2(F)F` (centres unmarked) [BOFP], the Kd on E. faecium (EfmFtsZ) (15 °C, read-out: Kd - 15 °C) was 2.5 ± 0.14 µM; at E. faecium (EfmFtsZ) (25 °C, read-out: Kd - 25 °C), 2.62 ± 0.08 µM; at E. faecium (EfmFtsZ) (37 °C, read-out: Kd - 37 °C) it was 3.14 ± 0.22 µM. For the same molecule, the ΔH on E. faecium (EfmFtsZ) (from linear fit of ln(1/Kd) vs. 1/T) is -7.95 ± 2.5 kJ/mol. Also, the “Fluorescence staining / FtsZ labeling in live cells” value in experiment [1] was “bright bands of fluorescence staining are clearly visible at midcell”.
